# Patent US10676459B2, “Antifungal compounds and processes for making” (MYCOVIA PHARMACEUTICALS INC., priority 2015, dated 2020)
# Tests used:
# [1] = Gravimetric Vapor Sorption (GVS) isotherm and XRPD post GVS; type: physicochemical
# Protocol: Gravimetric Vapor Sorption (GVS) isotherms were obtained using a SMS DVS Intrinsic moisture sorption analyser, controlled by DVS Intrinsic Control software v1.0.1.2 (or v 1.0.1.3). The sample temperature was maintained at 25° C. by the instrument controls. The humidity was controlled by mixing streams of dry and wet nitrogen, with a total flow rate of 200 mL/min. The relative humidity was measured by a calibrated Rotronic probe (dynamic range of 1.0-100% RH), located near the sample. The weight change, (mass relaxation) of the sample as a function of % RH was constantly monitored by the microbalance (accuracy ±0.005 mg). Typically 5-20 mg of sample was placed in a tared mesh stainless steel basket under ambient conditions. The sample was loaded and unloaded at 40% RH and 25° C. (typical room conditions). A moisture sorption isotherm was performed as outlined below (2 scans giving 1 complete cycle). The standard isotherm was performed at 25° C. at 10% RH intervals over a 0-90% RH range. Data analysis was undertaken in Microsoft Excel using DVS Analysis Suite v6.2 (or 6.1 or 6.0).
# Method Parameters for SMS DVS Intrinsic Experiments
# The sample was recovered after completion of the isotherm and re-analysed by XRPD.
# [2] = Solubility and pH of saturated solution; type: physicochemical
# [3] = Human multiple-dose pharmacokinetic comparison; type: in vivo; conditions: for Cmax / Tmax: in vivo
# Protocol: Human Pharmacokinetic Comparison of Compound 1 X-Hydrate and Compound 1 Anhydrous Form
# Table 6 compares human multiple-dose pharmacokinetic (PK) parameters between dosing with Compound 1 X-hydrate and Compound 1 Anhydrous form. Compound 1 X-hydrate was dosed at 600 mg twice daily (bid) for three days followed by dosing at 300 mg once daily (qd) for 10 days. Compound 1 Anhydrous form was dosed at 300 mg qd for 14 days.
# [4] = XRPD stability post 2 weeks storage at temperature and humidity; type: physicochemical
# Protocol: X-Ray Powder Diffraction patterns were collected on a Bruker AXS C2 GADDS diffractometer using Cu Kα radiation (40 kV, 40 mA), automated XYZ stage, laser video microscope for auto-sample positioning and a Hi Star 2-dimensional area detector. X-ray optics consists of a single Göbel multilayer mirror coupled with a pinhole collimator of 0.3 mm. A weekly performance check is carried out using a certified standard NIST 1976 Corundum (flat plate). The beam divergence, i.e. the effective size of the X-ray beam on the sample, was approximately 4 mm. A Θ-Θ continuous scan mode was employed with a sample-detector distance of 20 cm which gives an effective […] of 3.2°-29.7°. Typically the sample would be exposed to the X-ray beam for 120 seconds. The software used for data collection was GADDS for XP/2000 4.1.43 and the data were analysed and presented using Diffrac Plus EVA v13.0.0.2 or v15.0.0.0. […]
# X-Ray Powder Diffraction patterns were also collected on a Bruker D8 diffractometer using Cu Kα radiation (40 kV, 40 mA), 0-20 goniometer, and divergence of V4 and receiving slits, a Ge monochromator and a Lynxeye detector. […] The software used for data collection was Diffrac Plus XRD Commander v2.6.1 and the data were analysed and presented using Diffrac Plus EVA v13.0.0.2 or v15.0.0.0. […]
# [5] = 300 mg qd for 14 days vs X-hydrate 600 mg bid for three days then 300 mg qd for 10 days
# [6] = 600 mg bid loading dose for 3 days, then 300 mg qd maintenance for 10 days
SMILES,"GVS water uptake at 90% RH ([1]; 25° C., listed as Anhydrous 1) [% w/w water uptake at]",pH of saturated solution ([2]; listed as Anhydrous 1),AUC0-8 h ([3]; 300 mg qd for 14 days) [ngh/mL],"area-under-the-curve (AUC) compared with Compound 1 X-hydrate [3, 5]","maximal concentration (Cmax) compared with Compound 1 X-hydrate [3, 5]",Cmax ([3]; 300 mg qd for 14 days) [µg/mL],Tmax ([3]; 300 mg qd for 14 days) [h],"GVS sample hysteresis ([1]; 0-90% RH, 25° C.)","GVS water uptake at 90% RH ([1]; 25° C., listed as X-hydrate 1) [% w/w water uptake at]",XRPD post GVS ([1]; after GVS experiment),solubility [2] [µg/mL],pH of saturated solution ([2]; listed as X-hydrate 1),"AUC0-8 h [3, 6] [ngh/mL]","Cmax [3, 6] [µg/mL]","Tmax [3, 6] [h]",XRPD stability post 2 weeks at 25° C. & 97% RH ([4]; 25° C. & 97% RH),XRPD stability post 2 weeks at 40° C. & 75% RH ([4]; 40° C. & 75% RH)
O[C@@](Cn1cnnn1)(c1ccc(F)cc1F)C(F)(F)c1ccc(-c2ccc(OCC(F)(F)F)cc2)cn1 [Compound 1 Anhydrous],0.14,pH of saturated solution = 8.7,35653,higher,higher,4.69,5,,,,,,,,,,
O[C@@](Cn1cnnn1)(c1ccc(F)cc1F)C(F)(F)c1ccc(-c2ccc(OCC(F)(F)F)cc2)cn1 [Compound 1 X-Hydrate],,,,,,,,90% RH. No sample hysteresis,0.59,No form change after GVS,< 1,pH of saturated solution = 8.6,17600,2.52,5,No change in crystalline form,No change in crystalline form
